According to patent publication US10206904B2, “Licofelone derivatives and methods of use” (The Board of Regents of the University of Oklahoma, priority 2015, dated 2019):
Where two headings read alike, the source gives them in different places.

Legend:
[1] = tested on: colonic aberrant crypt foci (ACF); conditions: male F344 rats
Procedure: Male F344 rats at 8 weeks of age treated with AOM (15 mg/Kg BW) and exposed to 2% DSS for three days. […] Further, the inflammation was scored by following below criteria:
ACF form before colorectal polyps and are an indicator of the potential for cancer.

[2] = target: T1, mPGES-1 (Rattus norvegicus, UniProt Q9JHF3); conditions: two weeks, male F344 rats
T1 sequence (Q9JHF3 whole entry): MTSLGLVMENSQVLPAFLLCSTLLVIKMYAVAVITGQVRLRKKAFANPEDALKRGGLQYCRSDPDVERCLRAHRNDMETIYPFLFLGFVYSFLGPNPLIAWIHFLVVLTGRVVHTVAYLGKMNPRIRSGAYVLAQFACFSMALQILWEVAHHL
Procedure: (§1) Male F344 rats at 8 weeks of age treated with AOM (15 mg/Kg BW) and exposed to 2% DSS for three days. […] Further, the inflammation was scored by following below criteria: […]

[3] = target: T2, 5-LOX (Rattus norvegicus, UniProt P12527); conditions: two weeks, male F344 rats
T2 sequence (P12527 whole entry): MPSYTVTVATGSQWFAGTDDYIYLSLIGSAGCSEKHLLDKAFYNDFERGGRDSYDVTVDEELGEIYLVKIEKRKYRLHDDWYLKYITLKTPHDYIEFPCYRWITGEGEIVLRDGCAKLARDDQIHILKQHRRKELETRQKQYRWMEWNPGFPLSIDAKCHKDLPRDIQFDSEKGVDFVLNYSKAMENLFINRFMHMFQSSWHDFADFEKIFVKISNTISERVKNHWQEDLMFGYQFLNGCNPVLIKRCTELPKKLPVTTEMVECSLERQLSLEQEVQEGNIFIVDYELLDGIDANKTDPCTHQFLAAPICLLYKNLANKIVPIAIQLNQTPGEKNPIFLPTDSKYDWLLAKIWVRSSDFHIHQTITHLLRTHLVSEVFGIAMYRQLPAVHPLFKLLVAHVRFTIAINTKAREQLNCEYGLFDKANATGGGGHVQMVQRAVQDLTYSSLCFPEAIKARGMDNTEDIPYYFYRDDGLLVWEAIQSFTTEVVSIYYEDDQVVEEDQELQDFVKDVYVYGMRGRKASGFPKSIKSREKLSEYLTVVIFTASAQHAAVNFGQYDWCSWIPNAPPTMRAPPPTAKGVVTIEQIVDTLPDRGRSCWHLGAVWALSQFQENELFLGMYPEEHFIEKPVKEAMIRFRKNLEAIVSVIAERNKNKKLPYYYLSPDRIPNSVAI
Procedure: as §1

[4] = tested on: COX-1/2; conditions: two weeks, male F344 rats
Procedure: as §1

[5] = target: T1, mPGES-1; conditions: ex vivo colon tumor homogenate
Procedure: (§2) Briefly, colonic tubular adenocarcinomas (ACs) were homogenized in 100 mM Tris-HCl buffer. […] Reaction mixture incubated for 20 min and ^14C-PGE2, 5-^14C-HETE and other 14-C metabolites were extracted and analyzed by Radio-HPLC according to the previously published work.

[6] = target: T2, 5-LOX; conditions: ex vivo colon tumor homogenate
Procedure: as §2

[7] = tested on: COX-1/2; conditions: ex vivo colon tumor homogenate
Procedure: as §2

CC1(C)Cc2c(-c3ccccc3)c(-c3ccc(Cl)cc3)c(CC(=O)NCC(=O)O)n2C1 [LFA-9, licofelone-glycine]
4 or >multi-crypt AC/colon (Mean ± SEM) ([1]; 200 ppm in diet): 23.5 ± 2.1 | % Inhibition (4 or >multi-crypt AC/colon) ([1]; 200 ppm in diet): 30% | % Inhibition (total ACF/colon) ([1]; 200 ppm in diet): 29.5% | Total ACF/Colon (Mean ± SEM) ([1]; 200 ppm in diet): 110 ± 6.1 | 4 or >multi-crypt AC/colon (Mean ± SEM) ([1]; 400 ppm in diet): 18.3 ± 2.0 | % Inhibition (4 or >multi-crypt AC/colon) ([1]; 400 ppm in diet): 45.4% | % Inhibition (total ACF/colon) ([1]; 400 ppm in diet): 44.2% | Total ACF/Colon (Mean ± SEM) ([1]; 400 ppm in diet): 84 ± 5.3 | 4 or >multi-crypt AC/colon (Mean ± SEM) ([1]; 600 ppm in diet): 13.5 ± 1.7 | % Inhibition (4 or >multi-crypt AC/colon) ([1]; 600 ppm in diet): 61.2% | % Inhibition (total ACF/colon) ([1]; 600 ppm in diet): 60.5% | Total ACF/Colon (Mean ± SEM) ([1]; 600 ppm in diet): 62 ± 4.8 | AOM-DSS-Induced mPGES-1 (colonic mucosa) ([2]; 100 ppm in diet): 22.6%^ | AOM-DSS-Induced mPGES-1 (colonic mucosa) ([2]; 200 ppm in diet): 33.7%^ | AOM-DSS-Induced mPGES-1 (colonic mucosa) ([2]; 400 ppm in diet): 58% | AOM-DSS-Induced mPGES-1 (colonic mucosa) ([2]; 600 ppm in diet): 77% | AOM-DSS-Induced mPGES-1 (colonic mucosa) ([2]; 800 ppm in diet): 83% | AOM-DSS-Induced 5-LOX (colonic mucosa) ([3]; 100 ppm in diet): 14.5% | AOM-DSS-Induced 5-LOX (colonic mucosa) ([3]; 200 ppm in diet): 22.6% | AOM-DSS-Induced 5-LOX (colonic mucosa) ([3]; 400 ppm in diet): 63.7% | AOM-DSS-Induced 5-LOX (colonic mucosa) ([3]; 600 ppm in diet): 74.7% | AOM-DSS-Induced 5-LOX (colonic mucosa) ([3]; 800 ppm in diet): 88.3% | AOM-DSS-Induced COX-1/2 (colonic mucosa) ([4]; 100 ppm in diet): 3.8% | AOM-DSS-Induced COX-1/2 (colonic mucosa) ([4]; 200 ppm in diet): 8.9% | AOM-DSS-Induced COX-1/2 (colonic mucosa) ([4]; 400 ppm in diet): 15.7% | AOM-DSS-Induced COX-1/2 (colonic mucosa) ([4]; 600 ppm in diet): 31.3% | AOM-DSS-Induced COX-1/2 (colonic mucosa) ([4]; 800 ppm in diet): 42.6% | % of Inhibition from control, mPGES-1 (14C-PGE2 from 14C-PGH2) ([5]; 2.5 μM): 18% | % of Inhibition from control, mPGES-1 (14C-PGE2 from 14C-PGH2) ([5]; 5.0 μM): 32% | % of Inhibition from control, mPGES-1 (14C-PGE2 from 14C-PGH2) ([5]; 7.5 μM): 57% | % of Inhibition from control, mPGES-1 (14C-PGE2 from 14C-PGH2) ([5]; 10 μM): 78% | % of Inhibition from control, mPGES-1 (14C-PGE2 from 14C-PGH2) ([5]; 20 μM): 83% | % of Inhibition from control, 5LOX (5-14C-HETE from 14C-AA) ([6]; 2.5 μM): 27% | % of Inhibition from control, 5LOX (5-14C-HETE from 14C-AA) ([6]; 5.0 μM): 49% | % of Inhibition from control, 5LOX (5-14C-HETE from 14C-AA) ([6]; 7.5 μM): 68% | % of Inhibition from control, 5LOX (5-14C-HETE from 14C-AA) ([6]; 10 μM): 89% | % of Inhibition from control, 5LOX (5-14C-HETE from 14C-AA) ([6]; 20 μM): 97% | % of Inhibition from control, COX-1/2 (14C-PGs and TXs from 14C-AA) ([7]; 2.5 μM): 4% | % of Inhibition from control, COX-1/2 (14C-PGs and TXs from 14C-AA) ([7]; 5.0 μM): 9% | % of Inhibition from control, COX-1/2 (14C-PGs and TXs from 14C-AA) ([7]; 10 μM): 31% | % of Inhibition from control, COX-1/2 (14C-PGs and TXs from 14C-AA) ([7]; 20 μM): 58%
